Measured values reported in ChEMBL document CHEMBL1201862, “PubChem BioAssay data set” (2004).
“And” between values parts separate entries of the source, which are not always exact repeats. Equal entries are not always repeated. The source made the active and inactive calls.

Experiments:
[1] = Luminescence Cell-Based Dose Confirmation HTS to Identify Activators of 5'UTR Stem-Loop Driven Alpha-Synuclein mRNA Translation in H4 Neuroglioblastoma Cells. [Related pubchem assays: 1829 (Project Summary), 1814 (Primary HTS)]; assay type: functional
[2] = Luminescence Cell-Based Dose Response HTS to Identify Activators of Luciferase Translation or Activity in H4 […] Cells. [Related pubchem assays: 1829 (Project Summary), 1814 (Primary HTS)]; assay type: functional
H4 = assay: Luminescence Cell-Based Dose Response HTS to Identify Activators of 5'UTR Stem-Loop Driven Prion Protein mRNA Translation in H4 Neuroglioblastoma Cells. [Related pubchem assays: 1829 (Project Summary), 1814 (Primary HTS)]; assay type: functional; conditions: Homo sapiens
[3] = biological target: T1, Heat shock factor protein 1 (Mus musculus, UniProt P38532); assay: enhancement of HSF1-driven luciferase signal – cell-based, NIH3T3, luminescence, dose retest, confirmation (AID 435004); assay type: functional;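 note: stress induced by proteasome inhibitor MG132 added 30 min after compound; luciferase reporter driven by HSF1 response element in NIH3T3 cells; actives raise luminescence as potentiators of the MG132 stress response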
T1 sequence (P38532 whole entry): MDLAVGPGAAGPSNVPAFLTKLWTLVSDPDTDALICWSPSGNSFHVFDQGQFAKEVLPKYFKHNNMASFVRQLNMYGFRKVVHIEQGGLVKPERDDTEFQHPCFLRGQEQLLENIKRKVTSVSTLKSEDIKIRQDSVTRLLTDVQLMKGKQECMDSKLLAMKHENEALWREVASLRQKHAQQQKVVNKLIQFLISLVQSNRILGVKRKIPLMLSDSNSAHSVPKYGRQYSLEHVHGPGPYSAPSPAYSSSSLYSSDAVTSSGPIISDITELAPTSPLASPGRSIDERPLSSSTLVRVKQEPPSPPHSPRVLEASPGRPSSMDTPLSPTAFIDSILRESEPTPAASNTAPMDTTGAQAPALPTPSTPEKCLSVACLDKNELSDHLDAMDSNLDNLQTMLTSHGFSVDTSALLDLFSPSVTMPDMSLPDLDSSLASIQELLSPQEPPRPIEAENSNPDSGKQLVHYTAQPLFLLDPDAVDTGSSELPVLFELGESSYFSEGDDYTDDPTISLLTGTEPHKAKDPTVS

Cytochrome P450 2D6 = Cytochrome P450 2D6 (Homo sapiens, UniProt P10635);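 note: CYP2D6 member of a cytochrome P450 panel assay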
Sequence of Cytochrome P450 2D6 (P10635 whole entry): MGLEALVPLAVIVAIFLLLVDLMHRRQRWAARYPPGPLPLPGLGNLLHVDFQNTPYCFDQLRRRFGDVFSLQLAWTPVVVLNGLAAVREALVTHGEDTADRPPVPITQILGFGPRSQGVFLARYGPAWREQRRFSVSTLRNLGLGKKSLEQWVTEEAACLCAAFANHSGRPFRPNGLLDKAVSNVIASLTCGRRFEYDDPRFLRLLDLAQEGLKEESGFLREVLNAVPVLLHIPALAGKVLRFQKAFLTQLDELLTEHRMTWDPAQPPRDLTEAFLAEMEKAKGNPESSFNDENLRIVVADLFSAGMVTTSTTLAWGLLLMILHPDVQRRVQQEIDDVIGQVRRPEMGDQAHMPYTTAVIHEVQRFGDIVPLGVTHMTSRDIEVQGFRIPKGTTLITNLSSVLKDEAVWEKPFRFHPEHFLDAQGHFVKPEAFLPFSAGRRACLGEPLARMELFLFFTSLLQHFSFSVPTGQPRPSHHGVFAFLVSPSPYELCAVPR

Cytochrome P450 2C19 = Cytochrome P450 2C19 (Homo sapiens, UniProt P33261); assay: Cytochrome panel assay with activity outcomes. Panel member name: p450-cyp2c19 Compounds with AC50 equal or less than 10 uM are considered active; assay type: functional; conditions: read-out: AC50
Sequence of Cytochrome P450 2C19 (P33261 whole entry): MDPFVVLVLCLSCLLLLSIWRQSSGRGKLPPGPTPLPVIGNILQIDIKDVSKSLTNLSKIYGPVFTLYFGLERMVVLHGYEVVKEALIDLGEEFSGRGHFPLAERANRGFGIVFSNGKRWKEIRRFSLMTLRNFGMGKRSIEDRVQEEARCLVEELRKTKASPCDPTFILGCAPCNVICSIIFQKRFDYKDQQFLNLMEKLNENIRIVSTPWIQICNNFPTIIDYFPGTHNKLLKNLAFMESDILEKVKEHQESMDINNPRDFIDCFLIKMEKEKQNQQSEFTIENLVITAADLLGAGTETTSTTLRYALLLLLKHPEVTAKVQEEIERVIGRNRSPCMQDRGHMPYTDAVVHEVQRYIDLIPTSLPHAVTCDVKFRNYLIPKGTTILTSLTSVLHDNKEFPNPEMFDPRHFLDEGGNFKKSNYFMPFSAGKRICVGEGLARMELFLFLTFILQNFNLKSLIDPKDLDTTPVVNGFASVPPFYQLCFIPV

Cytochrome P450 1A2 = biological target: T2, Cytochrome P450 1A2 (Homo sapiens, UniProt P05177);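 note: PubChem cytochrome P450 panel assay, CYP1A2 panel member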
T2 sequence (P05177 whole entry): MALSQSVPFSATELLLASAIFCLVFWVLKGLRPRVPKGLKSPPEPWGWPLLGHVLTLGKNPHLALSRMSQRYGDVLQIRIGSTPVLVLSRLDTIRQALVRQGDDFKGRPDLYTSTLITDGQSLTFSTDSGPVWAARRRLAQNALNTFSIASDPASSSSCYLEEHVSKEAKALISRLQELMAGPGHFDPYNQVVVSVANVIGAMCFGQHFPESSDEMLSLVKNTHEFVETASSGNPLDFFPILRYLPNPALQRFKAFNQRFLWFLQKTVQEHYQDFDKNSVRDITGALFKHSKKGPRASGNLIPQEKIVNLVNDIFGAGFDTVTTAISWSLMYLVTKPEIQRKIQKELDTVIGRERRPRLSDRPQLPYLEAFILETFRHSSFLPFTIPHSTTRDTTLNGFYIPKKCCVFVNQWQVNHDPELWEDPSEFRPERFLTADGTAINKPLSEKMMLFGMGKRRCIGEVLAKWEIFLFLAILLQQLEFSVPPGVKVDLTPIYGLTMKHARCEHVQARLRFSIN

[4] = biological target: T3, Corticotropin-releasing factor receptor 2/Corticotropin-releasing factor-binding protein (Homo sapiens, UniProt P24387+Q13324); assay: Dose Response confirmation of uHTS hits for small molecule antagonists of the CRF-binding protein and CRF-R2 receptor complex.; assay type: functional; conditions: read-out: IC50_Mean
T3 sequence (Q13324 whole entry): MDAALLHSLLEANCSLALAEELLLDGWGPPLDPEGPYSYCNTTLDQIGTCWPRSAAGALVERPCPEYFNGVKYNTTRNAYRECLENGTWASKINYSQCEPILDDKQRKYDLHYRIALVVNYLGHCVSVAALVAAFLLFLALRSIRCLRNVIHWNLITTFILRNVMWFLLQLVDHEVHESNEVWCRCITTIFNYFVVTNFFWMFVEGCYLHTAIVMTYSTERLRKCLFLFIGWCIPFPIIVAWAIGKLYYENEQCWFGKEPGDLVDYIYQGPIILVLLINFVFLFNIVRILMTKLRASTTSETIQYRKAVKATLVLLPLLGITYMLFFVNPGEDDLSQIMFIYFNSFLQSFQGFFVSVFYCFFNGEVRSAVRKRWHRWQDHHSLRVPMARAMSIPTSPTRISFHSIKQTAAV
T3 sequence (P24387 whole entry): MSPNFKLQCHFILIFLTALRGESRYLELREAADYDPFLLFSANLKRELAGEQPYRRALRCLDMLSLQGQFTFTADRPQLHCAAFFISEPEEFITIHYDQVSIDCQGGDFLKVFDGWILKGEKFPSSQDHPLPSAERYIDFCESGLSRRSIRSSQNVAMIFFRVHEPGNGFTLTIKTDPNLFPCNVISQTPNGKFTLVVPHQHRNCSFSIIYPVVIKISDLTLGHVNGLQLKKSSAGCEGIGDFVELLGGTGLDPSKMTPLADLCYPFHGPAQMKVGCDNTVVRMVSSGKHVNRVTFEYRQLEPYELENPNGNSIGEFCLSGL

[5] = biological target: T3, Corticotropin-releasing factor receptor 2/Corticotropin-releasing factor-binding protein; assay: activators of CRF receptor 2 with binding protein – uHTS hits, confirmation (AID 602473); assay type: functional; conditions: read-out: EC50_Mean
[6] = non-specific 3'UTR reporter inhibition in Clone20-Shn3RL – cell-based, Renilla luciferase, cherry-picked, counter-screen for Shn3 inhibitor project, dose response (AID 624133); assay type: functional
[7] = loss of viability in HepG2 cells – cell-based, CellTiter-Glo, cherry-picked, cytotoxicity control for Shn3 inhibitor project, dose response (AID 624134); assay type: functional
[8] = reduction of Shn3 3'UTR-driven luciferase in osteoblasts – cell-based, Clone20 osteoblasts, firefly luciferase, cherry-picked, dose response (AID 624132); assay type: functional;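 note: firefly luciferase luminescence from reporter carrying the Shn3 3'UTR in osteoblasts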

Cc1ccc(-c2cc3nc(-c4ccccc4)cc(N)n3n2)cc1
EC50 [1]: 0.163 µM (active) | EC50 [2]: 0.812 µM (active) | EC50 (H4): > 120 µM (not active)

Cc1nc(-c2ccc(Cl)cc2)sc1C1(C)CC(c2ccccc2)=NO1 (stereo unspecified)
EC50 [1]: 7.51 µM (active) | EC50 [2]: 9.8 µM (active) | EC50 (H4): 31.3 µM (active)

COc1cc(N=C(S)NC(C)(C)C)c(OC)cc1Cl
EC50 [3]: > 260 µM (inactive)

COc1ccc(-n2c(=O)cnc3cnc(Oc4cccc(Cl)c4)nc32)cc1
AC50 (Cytochrome P450 2D6): 39.8 µM (inconclusive) | AC50 (Cytochrome P450 2C19): 15.8 µM (inconclusive)

COc1ccc(C(=O)C(OC(=O)c2ccccc2)c2ccccc2)cc1 (stereo unspecified)
EC50 [1]: 10.7 µM (active) | EC50 [2]: 30.5 µM (active) | EC50 (H4): 6.4 µM (active)

COc1cccc(NS(=O)(=O)c2ccc3ncc(C(=O)NCCN4CCOCC4)c(O)c3c2)c1
AC50 (Cytochrome P450 2D6): 28.2 µM (inconclusive) | AC50 (Cytochrome P450 1A2): 12.6 µM (inconclusive)

CCOC(=O)C1=NN(c2ccccc2)C2=NC(C)=C(C(=O)OC)C(c3cccs3)N12 (stereo unspecified)
IC50 [4]: > 47.1 µM (inactive) | EC50 [5]: > 53 µM (inactive)

O=C(N/N=C1\CC(c2ccccc2)Oc2ccccc21)c1ccc(O)cc1 (stereo unspecified)
EC50 [3]: > 260 µM (inactive)

COc1ccc(CCn2c(-c3ccccc3)nc3c(c(=O)c4ccccc4n3C)c2=O)cc1
EC50 [1]: > 120 µM (not active) | EC50 [2]: 24.2 µM (inconclusive) | EC50 (H4): > 120 µM (not active)

CCCCn1c(C)c(C(=O)OCC)c2c(CN3CCOCC3)c(O)ccc21
EC50 [3]: > 260 µM (inactive)

O=C(C[C@H]1C[C@@H]2c3cc(NS(=O)(=O)c4ccccc4)ccc3O[C@@H]2[C@H](CO)O1)N1CCOCC1
IC50 [4]: > 47.1 µM (inactive) | EC50 [5]: > 53 µM (inactive)

CCOC(=O)CSc1cc(-c2ccccc2)nc2ncnn12
EC50 [3]: 22.8 µM (active)

Brc1ccccc1OCCCCn1cnc2ccccc21
EC50 [1]: > 120 µM (not active) | EC50 [2]: 16.9 µM (active) | EC50 (H4): 13 µM (inconclusive)

Cc1ccc(S(=O)(=O)c2c(N)n(-c3ccccc3)c3nc4ccccc4nc23)cc1
EC50 [3]: 28.6 µM (active)

CN(C)c1ccc(-c2cncnc2Nc2ccccc2)cc1
AC50 (Cytochrome P450 2D6): 20 µM (inconclusive)

CN(NC(=O)Nc1ccccc1)c1cnn(C)c(=O)c1Cl
IC50 [4]: > 47.1 µM (inactive) | EC50 [5]: > 53 µM (inactive)

CCC(=O)NC(C)c1cc(Cl)c2cccnc2c1O (stereo unspecified)
AC50 [6]: 1.62 µM (active) | AC50 [7]: 9.85 µM (active) | AC50 [8]: 5.19 µM (active)

O=S(=O)(c1cccc2nsnc12)N1CCc2ccccc2C1
IC50 [4]: > 47.1 µM (inactive) | EC50 [5]: > 53 µM (inactive)

CCN(CC)C(=O)CSc1ncnc2c1nnn2-c1ccc(OC)cc1
IC50 [4]: > 47.1 µM (inactive) | EC50 [5]: > 53 µM (inactive)

COc1ccc(CNc2ncnc3ccc(-c4ccc(C(=O)N(C)C)cc4)cc23)c(OC)c1
AC50 (Cytochrome P450 2D6): 20 µM (inconclusive) | AC50 (Cytochrome P450 1A2): 39.8 µM (inconclusive)

O=C1NCC2(CCN(CCc3ccccc3)CC2)O1 [FENSPIRIDE]
AC50 (Cytochrome P450 2D6): 12.6 µM (inconclusive) and 39.8 µM (inconclusive)
